According to patent US8440675B2, “Potentiator of radiation therapy” (Taiho Pharmaceutical Co., Ltd., priority 2006, dated 2013):
Several values for one entry are separate records, joined by “and”; a condition that tells them apart may be missing. Equal values may be shown once.

Assays:
Format in all cases: in vivo
mouse = assay: No observed adverse effect level on peroral administration to a mouse for 14 days; conditions: perorally administered to a mouse for 14 days; TAS-102 dose as reduced to FTD
Description: α,α,α-Trifluorothymidine (hereinafter abbreviated as FTD) and TPI were suspended in a 0.5% (w/v) HPMC solution to adjust their concentrations to 5.0 mg/mL and 2.65 mg/mL, respectively, and the suspension was stirred at room temperature for about 10 minutes. Subsequently, the suspension was ultrasonicated under ice cooling, to thereby prepare a drug liquid with a dose of 50 mg/kg/day (as reduced to FTD). Hereinafter, the drug liquid is referred to as TAS-102. The dose of the TAS-102 liquid is a “no observed adverse effect level” when the liquid is perorally administered to a mouse for 14 days.
FTD was suspended in a 0.5% (w/v) HPMC solution to adjust their concentrations to 5.0 mg/mL, and the suspension was stirred at room temperature for about 10 minutes. Subsequently, the suspension was ultrasonicated under ice cooling, to thereby prepare a FTD drug liquid with a dose of 50 mg/kg/day. The dose of FTD is a “no observed adverse effect level” when the liquid is perorally administered to a mouse for 14 days.

[1] = test system: human lung cancer strain (LC-11); assay: Test Example 4: anti-tumor effect of TAS-102 or FTD with or without X-ray irradiation in LC-11-transplanted nude mice
[2] = test system: human lung cancer strain (LC-11); assay: Test Example 2: anti-tumor effect of TPI or TUPI with or without X-ray irradiation in LC-11-transplanted nude mice; conditions: for RTV Day 15 / RTV Day 22 / RTV Day 29: mean ± S.D.
Description: (§1) TPI was suspended in a 0.5% (w/v) HPMC solution to adjust the concentration to 1.5 or 5.0 mg/mL, and the suspension was stirred at room temperature for about 10 minutes by means of a stirrer. Subsequently, the suspension was ultrasonicated under ice cooling for about five minutes, to thereby prepare a TPI drug liquid with a dose of 15 mg/kg/day or 50 mg/kg/day.
as §1, with “5-Chloro-6-aminouracil (hereinafter abbreviated as TUPI) was” for “TPI was”, “to” for “to 1.5 or”, “a TUPI” for “a TPI”, “of” for “of 15 mg/kg/day or”
By means of a radiation apparatus (model: MBR-1505R2, product of Hitachi Medical Corp.), mice were irradiated with X-rays under such irradiation conditions that the unit dose to one mouse was adjusted to 2 Gy or 5 Gy, by controlling the distance from the radiation source to the mouse. Specifically, radiation was applied locally to the right femoral region of each mouse where cells of a human tumor strain had been transplanted. In order to avoid systemic irradiation, the mouse was placed in a lead box so that only the right leg was exposed to the radiation.
The human lung cancer strain (LC-11) subcutaneously transplanted into the back of a BALB/cA-nu mouse and grown beforehand were removed, cut into small pieces (about 2×2 mm^2) with scissors in physiological saline, and subcutaneously transplanted into the right femoral region of 5- to 6-week-old mice of the same strain with a transplantation needle. The thus-treated mice were bred for adaptation for at least 1 to 2 weeks and divided into a control group, radiation-only groups, drug-only groups, and radiation-drug combination groups, each group consisting of 6 mice, such that the average tumor volume and the standard deviation (S.D.) were equalized to a maximum extent between groups. Then, administration of the drug and irradiation were started. To each of the mice of the groups subjected to drug administration, the aforementioned TPI liquid or TUPI liquid was perorally administered, by means of an oral administration probe, once a day at a dose of 0.1 mL/10 g-body weight for 14 continuous days. The mice of the groups subjected to radiation were irradiated with X-rays at a dose of 2 Gy or 5 Gy through the aforementioned method within about one hour after administration of the TPI liquid or the TUPI liquid on the test day 1 and day 8. To the cancer-bearing mice of the control group (non-radiation/non-drug administration group) and those of the radiation-only groups, only 0.5% HPMC liquid was perorally administered through the same method for 14 continuous days.
The tumor volume of each mouse of the above groups, which was calculated by the equation 1 in Test Example 1, was determined before the start of the treatment test, and on day 3, day 5, day 8 (1 week after), day 11, day 15 (after termination of administration, 2 weeks after), day 18, day […], day 25, and day 29 (4 weeks after). A relative tumor volume (RTV) to the tumor volume at the start of the test was obtained for each mouse. […] Then, the average tumor growth inhibition rate (IR: %) with respect to the control group was calculated on day 15, day 22, and day 29 (after termination of the treatment period) in a manner similar to that of Test Example 1.

[3] = 50 mg/kg (as reduced to FTD) p.o. once a day for 14 days + X-ray 2 Gy on day 1 and day 8
[4] = 50 mg/kg (as reduced to FTD) p.o. once a day for 14 days, no X-ray
[5] = 50 mg/kg p.o. once a day for 14 days + X-ray 2 Gy on day 1 and day 8
[6] = 50 mg/kg p.o. once a day for 14 days, no X-ray

Q: With `O=c1[nH]c(=O)n([C@H]2C[C@H](O)[C@@H](CO)O2)cc1C(F)(F)F` [FTD, α,α,α-Trifluorothymidine] as the compound, how does the “no observed adverse effect level” value (mouse) read?
A: 50 mg/kg/day

Q: And the “IR (%) Day 15” value [1, 3]?
A: 35.8%

Q: And the “IR (%) Day 22” value [1, 3]?
A: 48.6%

Q: And the “IR (%) Day 29” value [1, 3]?
A: 58.5%

Q: And the “IR (%) Day 15” value [1, 4]?
A: 52% and 51.8%

Q: And the “IR (%) Day 22” value [1, 4]?
A: 57% and 57.2%

Q: What about the “IR (%) Day 29” value [1, 4] of the same compound?
A: 59%

Q: And the “potentiation of anti-tumor effect of X-ray radiation (in words)” value ([1]; 50 mg/kg + X-ray 2 Gy)?
A: the anti-tumor effect did not increase

Q: For `Nc1[nH]c(=O)[nH]c(=O)c1Cl` [TUPI, 5-Chloro-6-aminouracil, reference compound], which “IR (%) Day 15” value [2, 5] is on record?
A: 36.6%

Q: What about the “IR (%) Day 22” value [2, 5] of the same compound?
A: 41.2%

Q: And the “IR (%) Day 29” value [2, 5]?
A: 50.2%

Q: What about the “RTV Day 15” value [2, 5] of the same compound?
A: 3.2 ± 0.8

Q: What about the “RTV Day 22” value [2, 5] of the same compound?
A: 5.3 ± 1.7

Q: What about the “RTV Day 29” value [2, 5] of the same compound?
A: 8.8 ± 2.5

Q: And the “IR (%) Day 15” value [2, 6]?
A: 12.7%

Q: And the “IR (%) Day 22” value [2, 6]?
A: 17.5%

Q: And the “IR (%) Day 29” value [2, 6]?
A: 21.4%

Q: And the “RTV Day 15” value [2, 6]?
A: 4.4 ± 1.8

Q: And the “RTV Day 22” value [2, 6]?
A: 7.4 ± 3.3

Q: What about the “RTV Day 29” value [2, 6] of the same compound?
A: 14.0 ± 6.3

Q: What about the “anti-tumor effect of the drug singly administered (in words)” value ([2]; 50 mg/kg, no X-ray) of the same compound?
A: virtually no anti-tumor effect

Q: What about the “potentiation of anti-tumor effect of X-ray radiation (in words)” value ([2]; drug + X-ray 2 Gy) of the same compound?
A: no potentiation of anti-tumor effect was observed
